Measured values as given in patent US20170137458A1, “OXYSTEROLS FOR USE IN THE TREATMENT AND PREVENTION OF DISEASES CAUSED BY VIRUSES” (priority 2014, published 2017).

Tests used:
[1] = system: rotavirus; assay: Assay on adhesion of the rotavirus to the cell surface; assay type: cell-based; settings: MA104 cells, 5.6 μM for 20 hours, MOI 3
Method: For the assays on bonding of the rotavirus to the surface of MA104 cells, monolayers of confluent cells in plates with 24 wells were treated at 37° C. with 25- or 27-hydroxycholesterol at 1.9 μM and 5.6 μM for 20 hours. The cells were then washed and cooled on ice for 20 minutes. The infectivity of the virus was activated with 5 μg of porcine trypsin (Sigma)/ml for 30 minutes at 37° C. The activated virus, which had been cooled to 4° C., was left to adhere to the cells in ice for 1 hour at an MOI of 3. Lastly, the cells were washed with cold MEM; cold MEM was then added to the cells, which underwent two freezing-thawing cycles, in order to allow detachment of the viral particles bonded to the cell surface; the cell lysate was incubated at 37° C. for 30 minutes in the presence of […] of porcine trypsin/ml, subsequently clarified by means of centrifugation (1200 rpm, 10 minutes).
The titre of the virus population bound to the cells was determined by means of indirect immunocytochemistry performed on monolayers of MA104 cells infected with serial dilutions of the virus collected. The results are illustrated by FIG. 9; in the graph, the titre of the viral population bound to the surface of the treated cells is expressed in percentage terms with respect to the non-treated control and the error bars represent the standard deviation. […]

[2] = system: human rotavirus; assay: Target identification by siRNA sensitization (TISS), human rotavirus, Caco2 cells; settings: oxysterol at its EC50
Method: (§1) This mechanism of action vis-à-vis the rotavirus was therefore investigated, performing a target identification assay by means of sensitization with short interfering RNA (siRNA). The Caco2 cells (for the experiments with human rotavirus) or the HeLa cells (for the experiments with human papillomavirus) were seeded in a plate with 24 wells; during seeding, the cells were transfected with siRNA specific for OSBP and VAPA (at a concentration of 20 nM). […] After one day, the medium was removed and the cells inoculated with the respective viruses in the same time, temperature and MOI conditions described in the protocols of the infectivity or neutralization assays. The number of infected cells was evaluated as described in the preceding paragraphs.

[3] = system: human rotavirus (strain Wa); assay: Rotavirus yield reduction assay; assay type: cell-based
Method: The cells were treated at 37° C. with 25-, 27-, 7α-, 7β-hydroxycholesterol or 7-ketocholesterol at 5.6 μM for 20 hours, then washed with medium and infected with the human rotavirus at an MOI of 0.02 (strain Wa) activated with trypsin. After one hour, the cells were washed and fresh medium was added supplemented with 0.5 μg/ml of porcine trypsin. […] The assay was performed in triplicate and the results were confirmed on Caco2 cells. In an alternative protocol, the MA104 cells were treated with oxysterols—at the concentration indicated above—after the viral inoculum. The one-way variance analysis (ANOVA), followed by the Bonferroni test, was used to evaluate the statistical significance of the virus titre differences between the treated and non-treated samples. The significance was fixed at 95%.
The results of the pre-treatment assays are illustrated in FIGS. 5 (MA104 cells) and 6 (Caco2 cells).

[4] = system: human rotavirus WI61; assay: Infectivity assay for rotavirus, MA104 cells, strain WI61
Method: The strains of human rotavirus Wa (ATCC® VR-2018), WI61 (ATCC® VR-2551), HRV 408 (ATCC® VR-2273), HRV 248 (ATCC® VR-2274) and DS-1 (ATCC® VR-2550) were acquired from the American Tissue Culture Collection (ATCC); the viruses were activated with 5 μg/ml porcine pancreatic trypsin of type IX (Sigma, St. Louis, Mo.) for 30 minutes at 37° C. and propagated in MA104 cells using MEM containing 0.5 μg of trypsin per ml as described previously (27).
The antiviral effectiveness of the oxysterols of the invention was determined by means of infectivity inhibition assay. The assays were performed with confluent monolayers of MA104 cells seeded in plates with 96 wells, as described previously (28). […] The control samples were prepared by treating the cells with culture medium with the addition of equal volumes of ethanol. The cells were then washed with medium, and the rotavirus infection was performed at a multiplicity of infection (MOI) of 0.02. After the infection, the cells were washed with medium and incubated at 37° C. in an incubator humidified at 5% (vol/vol) CO2-95% (vol/vol) of air. After 16 hours, the infected cells were fixed with a cold acetone-methanol mixture (50:50), and the virus titres were determined by means of indirect immunocytochemistry. The inhibition of the virus infectivity was expressed as a percentage comparing the mean number of infective events in the treated and non-treated samples±the standard deviations. Where possible, the values of the oxysterol concentrations able to determine 50% or 90% of the antiviral effect (EC50 and EC90 respectively) were calculated by means of regression analysis using the dose-response curves generated by the experimental data, with the use of PRISM 5.00 (GraphPad Software, San Diego, Calif., USA).

[5] = system: human rhinovirus 1A; assay: Rhinovirus yield reduction assay; settings: HeLa cells, 5.6 μM after infection, collected 5 days after the infection
Method: Each well was inoculated with 200 μl of a stock of human rhinovirus 1A containing approximately 30 PFU per well and incubated for 1 hour. […] The infected cells and the supernatants were collected 5 days after the infection (when a complete CPE was visible), and titred by means of the standard plaque method, as described above.

[6] = system: rhinovirus; settings: cited from earlier work
[7] = system: human papillomavirus; assay: Target identification by siRNA sensitization (TISS), human papillomavirus, HeLa cells; settings: oxysterol at its EC50
Method: as §1

## C[C@H](CCCC(C)(C)O)[C@H]1CC[C@H]2[C@@H]3CC=C4C[C@@H](O)CC[C@]4(C)[C@H]3CC[C@]12C [25OHC, 25-hydroxycholesterol]
[1]
  titre of the viral population bound to the cell surface: reduce in a statistically significant manner (p<0.05) the ability of the virus to adhere to the cell surface
[2]; OSBP siRNA 20 nM
  antiviral activity in cells with OSBP silenced: higher
[2]; VAPA siRNA 20 nM
  antiviral activity in cells with VAP-A silenced: higher
[3]; Caco2 cells, pre-treatment 5.6 μM for 20 hours, collected 48 hours after infection
  production of virus progenies: significantly limit (p<0.05) the production of virus progenies
[3]; MA104 cells, post-infection treatment 5.6 μM
  production of virus progenies: confirm the in vitro effectiveness
[3]; MA104 cells, pre-treatment 5.6 μM for 20 hours, collected 48 hours after infection
  production of virus progenies: significantly limit (p<0.05) the production of virus progenies
[4]
  EC50: 0.09 µM
  EC90: 0.28 µM
[5]
  production of viral progenies: totally inhibit the production of viral progenies
[6]
  replication of the genoma of the rhinovirus: able to inhibit replication of the genoma
  rhinovirus entry into the host cell: not entry into the host cell
[7]; OSBP siRNA 20 nM
  antiviral activity in cells with OSBP silenced: higher
[7]; VAPA siRNA 20 nM
  antiviral activity in cells with VAP-A silenced: higher
